Test results published in ChEMBL document CHEMBL1909046, “DrugMatrix in vitro pharmacology data”.

Legend:
[1] = DRUGMATRIX: Serotonin (5-Hydroxytryptamine) 5-HT3 radioligand binding (ligand: [3H] GR-65630); type: cell membranes, Membrane; conditions: hek293; Not Active = under 50% inhibition at 10 µM
[2] = DRUGMATRIX: Glutamate, NMDA, Agonism radioligand binding (ligand: [3H] CGP-39653); type: cell membranes, Rattus norvegicus, Wistar, Cerebral cortex, Membrane; conditions: Not Active = under 50% inhibition at 10 µM
[3] = DRUGMATRIX: Sodium/nucleoside co-transporter radioligand binding (ligand: nitrobenzylthioinosine); type: cell membranes, Cavia porcellus, Dunkin-Hartley, Cerebral cortex, Membrane; conditions: Not Active = under 50% inhibition at 10 µM
[4] = DRUGMATRIX: Calcium Channel Type L, Benzothiazepine radioligand binding (ligand: [3H] Diltiazem); type: cell membranes, Rattus norvegicus, Wistar, Brain, Membrane; conditions: Not Active = under 50% inhibition at 10 µM
[5] = target: Matrix metalloproteinase-9 (Homo sapiens, UniProt P14780); test: biochemical; type: cell-based;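 further: inhibition of isolated MMP-9 enzyme activity toward a synthetic peptide substrate, from the DrugMatrix protease screening panel; in other assays of this panel Not Active means under 50% inhibition at 10 µM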
Matrix metalloproteinase-9, sequence (P14780 whole entry): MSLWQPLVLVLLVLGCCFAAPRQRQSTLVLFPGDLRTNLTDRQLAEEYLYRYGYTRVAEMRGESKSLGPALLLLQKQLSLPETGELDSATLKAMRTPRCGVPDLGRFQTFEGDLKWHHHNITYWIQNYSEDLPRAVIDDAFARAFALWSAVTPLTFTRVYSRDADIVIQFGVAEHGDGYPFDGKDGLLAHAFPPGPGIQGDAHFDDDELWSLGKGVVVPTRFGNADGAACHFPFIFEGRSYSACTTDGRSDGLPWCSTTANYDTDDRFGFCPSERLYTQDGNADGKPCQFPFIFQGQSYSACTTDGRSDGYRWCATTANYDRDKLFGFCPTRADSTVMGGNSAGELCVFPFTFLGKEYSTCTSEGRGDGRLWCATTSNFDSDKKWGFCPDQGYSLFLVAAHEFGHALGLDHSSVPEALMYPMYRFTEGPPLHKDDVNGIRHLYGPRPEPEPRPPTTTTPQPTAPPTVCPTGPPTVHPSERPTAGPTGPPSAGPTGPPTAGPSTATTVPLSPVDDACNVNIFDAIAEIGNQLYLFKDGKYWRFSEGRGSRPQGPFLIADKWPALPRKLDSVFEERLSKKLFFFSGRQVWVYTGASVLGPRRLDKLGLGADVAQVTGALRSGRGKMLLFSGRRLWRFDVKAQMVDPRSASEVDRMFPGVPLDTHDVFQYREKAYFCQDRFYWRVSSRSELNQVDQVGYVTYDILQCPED

[6] = target: Tyrosine-protein kinase Lck (Homo sapiens, UniProt P06239); test: DRUGMATRIX: Protein Tyrosine Kinase, LCK enzyme inhibition (substrate: Poly(Glu:Tyr)); type: cell-based, Insect cells; conditions: insect cells; Not Active = under 50% inhibition at 10 µM
Tyrosine-protein kinase Lck, sequence (P06239 whole entry): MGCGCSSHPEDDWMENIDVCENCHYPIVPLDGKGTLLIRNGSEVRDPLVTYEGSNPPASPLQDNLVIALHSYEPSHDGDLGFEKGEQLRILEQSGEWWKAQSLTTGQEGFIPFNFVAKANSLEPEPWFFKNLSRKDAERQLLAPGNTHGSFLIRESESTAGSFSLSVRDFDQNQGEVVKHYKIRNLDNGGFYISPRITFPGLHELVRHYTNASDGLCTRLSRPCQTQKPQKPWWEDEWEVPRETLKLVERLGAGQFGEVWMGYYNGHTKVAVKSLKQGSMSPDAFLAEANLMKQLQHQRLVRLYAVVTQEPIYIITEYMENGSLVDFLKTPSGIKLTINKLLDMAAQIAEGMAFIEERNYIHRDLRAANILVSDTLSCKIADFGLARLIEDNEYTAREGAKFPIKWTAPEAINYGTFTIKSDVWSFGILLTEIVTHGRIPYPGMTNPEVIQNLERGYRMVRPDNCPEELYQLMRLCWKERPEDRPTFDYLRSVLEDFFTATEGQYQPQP

B2 bradykinin receptor = target: T1, B2 bradykinin receptor (Homo sapiens, UniProt P30411); type: cell membranes, Membrane; conditions: chem-1; further: in other assays of this panel Not Active means under 50% inhibition at 10 µM
T1 sequence (P30411 whole entry): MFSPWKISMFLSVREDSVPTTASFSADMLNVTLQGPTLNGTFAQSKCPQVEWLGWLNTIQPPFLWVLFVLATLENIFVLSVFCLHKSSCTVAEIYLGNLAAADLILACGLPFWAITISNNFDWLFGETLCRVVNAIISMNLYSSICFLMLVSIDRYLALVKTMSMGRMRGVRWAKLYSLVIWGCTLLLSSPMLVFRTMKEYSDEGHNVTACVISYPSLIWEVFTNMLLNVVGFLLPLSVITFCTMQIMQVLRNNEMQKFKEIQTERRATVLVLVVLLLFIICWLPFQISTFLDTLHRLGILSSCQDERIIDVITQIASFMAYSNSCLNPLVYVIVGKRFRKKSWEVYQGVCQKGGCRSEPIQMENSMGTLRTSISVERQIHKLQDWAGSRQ

Row | SMILES | IC50 [1] | Ki [1] | IC50 [2] | Ki [2] | IC50 [3] | Ki [3] | IC50 ([4]; read-out: IC50) | Ki ([4]; read-out: Ki) | IC50 [5] | IC50 [6] | IC50 (B2 bradykinin receptor) | IC50 [4] | Ki [4]
1 | CCOC(=O)C1=C(C)NC(C)=C(C(=O)OC)C1c1cccc(Cl)c1Cl (centres undefined) [FELODIPINE] | Not Active | Not Active | Not Active | Not Active | Not Active | Not Active | 23 nM | 20 nM | Not Active | Not Active | Not Active | – | –
2 | CC(C(=O)O)c1ccc(-c2ccccc2)c(F)c1 (centres undefined) [FLURBIPROFEN] | Not Active | Not Active | Not Active | Not Active | Not Active | Not Active | – | – | Not Active | Not Active | Not Active | Not Active | Not Active
3 | Cc1cn[nH]c1 [FOMEPIZOLE] | Not Active | Not Active | Not Active | Not Active | Not Active | Not Active | – | – | Not Active | Not Active | Not Active | Not Active | Not Active
4 | NC[C@@H]1O[C@H](O[C@H]2[C@@H](O)[C@H](O[C@@H]3[C@@H](O)[C@H](N)C[C@H](N)[C@H]3O[C@H]3O[C@H](CN)[C@@H](O)[C@H](O)[C@H]3N)O[C@@H]2CO)[C@H](N)[C@@H](O)[C@@H]1O [FRAMYCETIN] | Not Active | Not Active | Not Active | Not Active | Not Active | Not Active | – | – | Not Active | Not Active | Not Active | Not Active | Not Active
5 | C[C@H]([C@](O)(Cn1cncn1)c1ccc(F)cc1F)S(C)(=O)=O [GENACONAZOLE] | Not Active | Not Active | Not Active | Not Active | Not Active | Not Active | – | – | Not Active | Not Active | Not Active | Not Active | Not Active
6 | Cc1cnc(C(=O)NCCc2ccc(S(=O)(=O)NC(=O)NC3CCCCC3)cc2)cn1 [GLIPIZIDE] | Not Active | Not Active | Not Active | Not Active | Not Active | Not Active | – | – | Not Active | Not Active | Not Active | Not Active | Not Active
7 | Cc1c(F)c(N2CCNC(C)C2)cc2c1c(=O)c(C(=O)O)cn2C1CC1 (centres undefined) [GREPAFLOXACIN] | Not Active | Not Active | Not Active | Not Active | Not Active | Not Active | – | – | Not Active | Not Active | Not Active | Not Active | Not Active
8 | COc1ccccc1OCC(O)CO (centres undefined) [GUAIFENESIN] | Not Active | Not Active | Not Active | Not Active | Not Active | Not Active | – | – | Not Active | Not Active | Not Active | Not Active | Not Active
9 | N=C(N)N/N=C/c1c(Cl)cccc1Cl [GUANABENZ] | Not Active | Not Active | Not Active | Not Active | Not Active | Not Active | – | – | Not Active | Not Active | Not Active | Not Active | Not Active
10 | C[C@]12CCC(=O)C=C1CC[C@@H]1[C@@H]2[C@@H](O)C[C@@]2(C)[C@H]1CC[C@]2(O)C(=O)CO [HYDROCORTISONE] | Not Active | Not Active | Not Active | Not Active | Not Active | Not Active | – | – | Not Active | Not Active | Not Active | Not Active | Not Active
11 | C/C=C\c1ccc(O)c(OC)c1 [ISOEUGENOL] | Not Active | Not Active | Not Active | Not Active | Not Active | Not Active | – | – | Not Active | Not Active | Not Active | Not Active | Not Active
12 | NC[C@H]1O[C@H](O[C@H]2[C@H](O)[C@@H](O[C@H]3O[C@H](CO)[C@@H](O)[C@H](N)[C@H]3O)[C@H](N)C[C@@H]2N)[C@H](O)[C@@H](O)[C@@H]1O [KANAMYCIN] | Not Active | Not Active | Not Active | Not Active | Not Active | Not Active | – | – | Not Active | Not Active | Not Active | Not Active | Not Active
13 | CC[C@H](C)C(=O)O[C@H]1C[C@@H](C)C=C2C=C[C@H](C)[C@H](CC[C@@H]3C[C@@H](O)CC(=O)O3)[C@H]21 [LOVASTATIN] | Not Active | Not Active | Not Active | Not Active | Not Active | Not Active | – | – | Not Active | Not Active | Not Active | Not Active | Not Active
14 | CC(C(=O)O)c1ccc(CC2CCCC2=O)cc1 (centres undefined) [LOXOPROFEN] | Not Active | Not Active | Not Active | Not Active | Not Active | Not Active | – | – | Not Active | Not Active | Not Active | Not Active | Not Active
15 | Cc1cccc(Nc2ccccc2C(=O)O)c1C [MEFENAMIC ACID] | Not Active | Not Active | Not Active | Not Active | Not Active | Not Active | – | – | Not Active | Not Active | Not Active | Not Active | Not Active
16 | CC(=O)O[C@]1(C(C)=O)CC[C@H]2[C@@H]3C=C(C)C4=CC(=O)CC[C@]4(C)[C@H]3CC[C@@]21C [MEGESTROL ACETATE] | Not Active | Not Active | Not Active | Not Active | Not Active | Not Active | – | – | Not Active | Not Active | Not Active | Not Active | Not Active
17 | COc1ccccc1OCC(O)COC(N)=O (centres undefined) [METHOCARBAMOL] | Not Active | Not Active | Not Active | Not Active | Not Active | Not Active | – | – | Not Active | Not Active | Not Active | Not Active | Not Active
18 | CN(Cc1cnc2nc(N)nc(N)c2n1)c1ccc(C(=O)N[C@@H](CCC(=O)O)C(=O)O)cc1 [METHOTREXATE] | Not Active | Not Active | Not Active | Not Active | Not Active | Not Active | – | – | Not Active | Not Active | Not Active | Not Active | Not Active
19 | COC(=O)c1ccccc1O [METHYL SALICYLATE] | Not Active | Not Active | Not Active | Not Active | Not Active | Not Active | – | – | Not Active | Not Active | Not Active | Not Active | Not Active
20 | COc1ccc2cc(CCC(C)=O)ccc2c1 [NABUMETONE] | Not Active | Not Active | Not Active | Not Active | Not Active | Not Active | – | – | Not Active | Not Active | Not Active | Not Active | Not Active
21 | O=C(O)c1cccnc1 [NIACIN] | Not Active | Not Active | Not Active | Not Active | Not Active | Not Active | – | – | Not Active | Not Active | Not Active | Not Active | Not Active
22 | CNC(=C[N+](=O)[O-])NCCSCc1csc(CN(C)C)n1 [NIZATIDINE] | Not Active | Not Active | Not Active | Not Active | Not Active | Not Active | – | – | Not Active | Not Active | Not Active | Not Active | Not Active
23 | C[C@]12C/C(=C/O)C(=O)C[C@@H]1CC[C@@H]1[C@@H]2CC[C@@]2(C)[C@H]1CC[C@]2(C)O [OXYMETHOLONE] | Not Active | Not Active | Not Active | Not Active | Not Active | Not Active | – | – | Not Active | Not Active | Not Active | Not Active | Not Active
24 | CC(C)(CO)C(O)C(=O)NCCCO (centres undefined) [PANTHENOL] | Not Active | Not Active | Not Active | Not Active | Not Active | Not Active | – | – | Not Active | Not Active | Not Active | Not Active | Not Active
